Here are results for three compounds from ChEMBL document CHEMBL1128844, “The design, synthesis and evaluation of A,C,D-ring analogs of the fungal metabolite K-76 as complement inhibitors: a potential probe for the absolute stereochemistry at position 2” (1995).

Common to all, as to assay type: functional
The species named for assay [1] is Homo sapiens. The experiment in a line: Ability to inhibit human complement-mediated erythrocyte lysis by alternate pathway.
The species named for assay [2] is Homo sapiens. Briefly: Ability to inhibit human complement-mediated erythrocyte lysis by classical pathway.
Assay [3] is filed under the species Homo sapiens. The experiment in a line: Ability to inhibit human complement-mediated erythrocyte lysis by classical pathway at 2000 uM concentration.

SMILES strings stand for the structures. Some results are limits rather than exact numbers.

For the compound `COc1ccc(C(=O)O)c2c1CC(C)(C1CC[C@](C)(O)C(O)C1)O2` (stereo not given in full), the results for the IH50 in the assay filed under Homo sapiens [1] and in the assay listed under Homo sapiens [2] were greater than 2550 µM and 1600 µM, respectively. `C=C(Cc1c(OC)ccc(C(=O)O)c1O)C1CC[C@](C)(O)C(O)C1` (stereo not given in full) registered an inhibition at 2000 µM in the assay listed under Homo sapiens [3] of 24%.

Regarding `C[C@@H]1CCC2C(C)(C)[C@H](O)[C@H](O)C[C@]2(C)[C@@]12Cc1c(O)cc(C(=O)[O-])c(C=O)c1O2.[Na+]` (stereo not given in full), the IH50 was 850 µM in the assay listed under Homo sapiens [1] and 570 µM in the assay filed under Homo sapiens [2].
